Data on six compounds can be found in publication PMC7662523, “Evaluation of Polyhedral Oligomeric Silsesquioxane Porphyrin Derivatives on Photodynamic Therapy” (Molecules, 2020).

The subject of series [1] is MDA-MB-231 cells. Put plainly: Cell internalization by flow cytometry (percentage of positive cells). It is filed as cell-based, human. The following applies: 0.5 µM, 24 h. How it is done: Six-well plates were prepared with 1 × 10^5 MDA-MB-231 cells per well in complete RPMI media (2 mL) and incubated at 37 °C in 5% CO2 for 48 h. The media was removed from each well and media solutions of control porphyrin (ATPP) and POSSPs 1–5 (2 mL, 0.5 µM) were added to the wells. The cells were incubated at 37 °C in 5% CO2 atmosphere for 24 h. The cell media was removed from the wells, and the cells were washed with phosphate buffer solution two times. The cells were incubated for 3–5 min in the presence of trypsin (500 µL). Cells were removed and transferred to a centrifuge tube. Media (500 µL) was added to each well to remove any remaining cells and mixed with the previous solution. The cell pellet was obtained after centrifugation (2.5k RPM, 10 min). The supernatant was discarded, and phosphate buffer solution (500 µL) was added to each tube. The cell pellet was mixed and transferred to flow cytometry tubes. The cell internalization of POSSP compounds was measured as the percentage of positive cells using a flow cytometer (BD LSRFortessa).
(In general: A flow cytometer gives signals particle by particle.)

For series [2], the system named is MDA-MB-231 cells. Put plainly: In vitro phototoxicity, MTS assay after red light (630 nm) irradiation. The settings on record: for phototoxicity (in words): highest concentration evaluated (0.5 µM), 630 nm light; for reduction in cell proliferation: 0.5 µM, 48 h incubation, 630 nm 24.5 mW/cm2 20 min. Format: cell-based, human. How it is done: (§1) The phototoxicities of ATPP, TAPP, compound 6 and POSSPs 1–5 were tested by using the MTS assay. For this study, MDA-MB-231 cells were seeded in a 96-well plate at a density of 5 × 10^3 cells per well in 100 µL of complete media and incubated at 37 °C in 5% CO2 atmosphere for 24 h. After removing the cell culture medium, POSSPs 1–5 at different concentrations (0.01–0.5 µM) were prepared in cell media from a stock solution in DMSO with a final volume of the organic solvent not larger than 1% vol. After 48 h of incubation in the presence of POSSPs, the culture media was removed, and the cells were washed twice with phosphate buffer solution. MDA-MB-231 cells were illuminated with the red light (630 nm) at a fluence rate of 24.5 mW/cm^2 for 20 min. Control experiments were maintained in the same conditions, but in the dark for the same interval of time. After irradiation, the media was replaced by fresh media and the cells were allowed to grow for an additional 24 h. The cyto- and phototoxicities of compound 6 and POSSPs 4 and 5 were also evaluated following the above described protocol, but using concentrations ranging 0.01–100 µM.
To quantify the phototoxic or dark toxicity effects of the experiments above described, the treated MDA-MB-231 cells were subjected to cell viability assay using the CellTiter 96® Aqueous solution assay. To perform the assay, the cell media was removed, and the cells were washed once with phosphate buffer solution. Fresh media (100 µL) together with 20 µL of CellTiter 96® was added into each well and incubated for 2–3 h at 37 °C in 5% CO2 atmosphere. Cell viability (%) was calculated as follows: viability = (Asample/Acontrol) × 100%, where Asample and Acontrol denote absorbance values of the sample and control wells measured at 490 nm, respectively. The results are reported as the average ± SD of three experiments. The IC50 values were determined using GraphPad Prism (v8.1.2 for macOS, La Jolla California, CA, USA) fitting the viability data to a sigmoidal curve mathematical model.
(Tetrazolium assays rely on reduction of a dye to a coloured formazan, in cell work by metabolically active cells.)

A short description of series [3]: Singlet oxygen quantum yield, indirect method with DMA as 1O2 probe in DMF. Format: physicochemical. The following applies: for ΦΔ (1O2 quantum yield): DMA probe, irradiated at 515 nm, relative to TPP (ΦΔ = 0.62), n = 3. How it is done: The ^1O2 quantum yield (ΦΔ) of the POSSP compounds in dimethyl formamide (DMF) was indirectly determined using 9,10-dimethylanthracene (DMA) as ^1O2 probe. DMA reacts with ^1O2, undergoing a 1,4-cycloaddition that is detected as a decrease in the intensity of the DMA absorption band at 379 nm.
The ^1O2 quantum yields (ΦΔ) were determined through an indirect method using dimethylanthracence (DMA) as the singlet oxygen probe. Several solutions containing DMF were air saturated and prepared with DMA (50 μM) and the POSSPs or parent porphyrins (TPP, ATPP, TAPP and compound 6) (5 μM). These solutions were covered with aluminum foil to avoid any premature quenching. Quartz cuvettes (1 cm × 1 cm) were filled with 1 mL of the solution, placed in a spectrofluorophotometer (xenon lamp, Shimadzu RF-5301 PC) and irradiated at 515 nm for 600 s. The absorbance decay of DMA was monitored at 380 nm, which was corrected from light scattering by subtracting the spectra of POSSPs. The ΦΔ was calculated using Equation (2). Φ∆,S = Φ∆,R (mSample/mRerefence) (1−10^−absReference/1−10^−absSample)(2) where Φ∆,S is the singlet oxygen quantum yield of the sample and m is the slope of the plotted data relative to the area of the emission peak against the absorption of the reference.

The nature of series [4]: Partition coefficient (log POW) from n-butanol/water measurement. The settings on record: n-butanol/water measured at 25 °C, converted with calibration equation. Format: physicochemical. The procedure: The log POW values of the POSSPs and controls were first measured in an n-butanol/water mixture, and then correlated with corresponding values in n-octanol/water using a calibration curve reported in the literature. Distilled water and butanol were thoroughly mixed for 24 h at 25 °C to achieve solvent saturation in both phases. Then, the porphyrin derivatives were added to the mixture and the phases separated through a separatory funnel. The UV–Vis absorbance of the compounds in water and n-butanol was recorded at 420 nm. logPBW = log[(Ab/Aw)(Vw/Vb)](3) where Ab is the absorbance of n-butanol phase; AW is the absorbance of water phase; VW is the volume of water; and Vb is the volume of n-butanol. The partition coefficient of porphyrin derivatives in n-butanol/water was obtained using Equation (3). The log POW values were calculated using Equation (4). logPOW = −0.54 + 1.55 log(PBW)(4)

The nature of series [5]: Fluorescence quantum yield, comparative method relative to TPP. It is filed as physicochemical. The settings on record: air-saturated, excitation 520 nm, relative to TPP in benzene, n = 3. How it is done: The fluorescence quantum yields (ΦF) were determined to indirectly characterize the efficiency with which the POSSP compounds undergo intersystem crossing (ISC) from the excited state to the triplet state, an essential step in ROS generation. […] In the case of POSSPs 4 and 5, no differences in the ΦF values were observed.
The fluorescence quantum yields for air-saturated solutions (ΦF) in THF (POSSPs 1–3) or DMSO (POSSPs 4 and 5) were determined using the comparative method. TPP was used as a reference with a fluorescence quantum yield of 0.12 in benzene. The POSSPs concentrations ranged from 0.1 to 10 µM (THF) for POSSPs 1–3 and from 3 to 15 µM (DMSO) for POSSPs 4 and 5. The excitation wavelength was 520 nm and the excitation and emission slit width were 2 nm. The fluorescence quantum yields were measured according to the comparative method described by Equation (1).

Series [6] deals with MDA-MB-231 cells. Put plainly: In vitro cytotoxicity in the absence of light, MTS assay. The settings on record: concentrations 0.01–100 µM, Figure S7. Format: cell-based, human. How it is done:
as §1, with “MDA-MB-231 cells were illuminated with the red light (630 nm) at a fluence rate of 24.5 mW/cm^2 for 20 min. Control experiments were maintained in the same conditions, but in the dark for the same interval of time. After irradiation, the media was replaced by fresh media and the cells were allowed to grow for an additional 24 h.” left out
To quantify the phototoxic or dark toxicity effects of the experiments above described, the treated MDA-MB-231 cells were subjected to cell viability assay using the CellTiter 96® Aqueous solution assay. […] Cell viability (%) was calculated as follows: viability = (Asample/Acontrol) × 100%, where Asample and Acontrol denote absorbance values of the sample and control wells measured at 490 nm, respectively. […] The IC50 values were determined using GraphPad Prism (v8.1.2 for macOS, La Jolla California, CA, USA) fitting the viability data to a sigmoidal curve mathematical model.

For series [7] the following is noted: reference value used for calculation; cited from earlier work.
Details of series [8]: method as in PMID 10911728. The settings on record: in benzene; cited from earlier work.

In the case of `Nc1ccc(-c2c3nc(c(-c4ccccc4)c4ccc([nH]4)c(-c4ccccc4)c4nc(c(-c5ccccc5)c5ccc2[nH]5)C=C4)C=C3)cc1` [ATPP, 5-(4-aminophenyl)-10,15,20-(triphenyl)porphyrin, reference compound], the “internalization in cells (in words)” value in the series on MDA-MB-231 cells [1] is reported as “high internalization”. In the series with MDA-MB-231 cells [2], the “phototoxicity (in words)” value is “minimal PDT effect”. For the same compound, the “ΦΔ value (in words)” value in series [3] (Table S1) is “low ΦΔ value”.
Consider `CC(C)C[Si]12O[Si]3(CCCNC(=O)Nc4ccc(-c5c6nc(c(-c7ccccc7)c7ccc([nH]7)c(-c7ccccc7)c7nc(c(-c8ccccc8)c8ccc5[nH]8)C=C7)C=C6)cc4)O[Si]4(CC(C)C)O[Si](CC(C)C)(O1)O[Si]1(CC(C)C)O[Si](CC(C)C)(O2)O[Si](CC(C)C)(O3)O[Si](CC(C)C)(O4)O1` [POSSP 1], for which the “reduction in cell proliferation” value in the series on MDA-MB-231 cells [2] amounted to 43 ± 4%. In addition, the “ΦΔ (1O2 quantum yield)” value in series [3] was 0.82 ± 0.01. Moreover, the “log POW (in words)” value in series [4] is “positive values”. Moreover, in series [5] (in THF), the “ΦF (fluorescence quantum yield)” value is given as 0.14 ± 0.01.
As for `O=C(NCCC[Si]12O[Si]3(c4ccccc4)O[Si]4(c5ccccc5)O[Si](c5ccccc5)(O1)O[Si]1(c5ccccc5)O[Si](c5ccccc5)(O2)O[Si](c2ccccc2)(O3)O[Si](c2ccccc2)(O4)O1)Nc1ccc(-c2c3nc(c(-c4ccccc4)c4ccc([nH]4)c(-c4ccccc4)c4nc(c(-c5ccccc5)c5ccc2[nH]5)C=C4)C=C3)cc1` [POSSP 2], in the series with MDA-MB-231 cells [1], the “internalization in cells (in words)” value was “internalized in a much higher percentage than the other POSSPs”. Besides, in the series with MDA-MB-231 cells [2], the “phototoxicity (in words)” value is listed as “did not show significant phototoxicity”. Further, the “ΦΔ (1O2 quantum yield)” value in series [3] stood at 0.60 ± 0.02. Besides, the “log POW (in words)” value in series [4] was “positive values”. Also, the “ΦF (fluorescence quantum yield)” value in series [5] (in THF) is 0.13 ± 0.01.
Regarding `NCCC[Si]12O[Si]3(CCCN)O[Si]4(CCCN)O[Si](CCCN)(O1)O[Si]1(CCCN)O[Si](CCCN)(O2)O[Si](CCCN)(O3)O[Si](CCCNC(=O)c2ccc(-c3c5nc(c(-c6ccccc6)c6ccc([nH]6)c(-c6ccccc6)c6nc(c(-c7ccccc7)c7ccc3[nH]7)C=C6)C=C5)cc2)(O4)O1` [POSSP 4], the “reduction in cell proliferation” value with MDA-MB-231 cells [2] is reported as 11 ± 2%. Moreover, in series [3], the “ΦΔ (1O2 quantum yield)” value is reported as 0.70 ± 0.01. Further, the “log POW (in words)” value in series [4] was “Negative log POW values”. The “ΦF (fluorescence quantum yield)” value in series [5] (in DMSO) was determined as 0.15 ± 0.01.
For `C[N+](C)(C)CCC[Si]12O[Si]3(CCCNC(=O)c4ccc(-c5c6nc(c(-c7ccccc7)c7ccc([nH]7)c(-c7ccccc7)c7nc(c(-c8ccccc8)c8ccc5[nH]8)C=C7)C=C6)cc4)O[Si]4(CCC[N+](C)(C)C)O[Si](CCC[N+](C)(C)C)(O1)O[Si]1(CCC[N+](C)(C)C)O[Si](CCC[N+](C)(C)C)(O2)O[Si](CCC[N+](C)(C)C)(O3)O[Si](CCC[N+](C)(C)C)(O4)O1` [POSSP 5], the “phototoxicity (in words)” value in the series with MDA-MB-231 cells [2] is listed as “did not show significant phototoxicity”. Besides, in the series with MDA-MB-231 cells [6], the “cytotoxicity at higher concentrations (in words)” value is given as “structural properties of the molecule also play a role in its toxicity”. Besides, in series [3], the “ΦΔ (1O2 quantum yield)” value is 0.66 ± 0.01. Further, the “log POW (in words)” value in series [4] is listed as “Negative log POW values”. Besides, the “ΦF (fluorescence quantum yield)” value in series [5] (in DMSO) amounted to 0.10 ± 0.01.
With `C1=Cc2nc1c(-c1ccccc1)c1nc(c(-c3ccccc3)c3ccc([nH]3)c(-c3ccccc3)c3ccc([nH]3)c2-c2ccccc2)C=C1` [TPP, 5,10,15,20-(tetraphenyl)porphyrin], the “ΦΔ (1O2 quantum yield) of reference” value in series [7] is reported as 0.62. In addition, the “fluorescence quantum yield of reference” value in series [8] was 0.12.
